What was measured:
Sprague-Dawley rats [1] = assay: Muscle pressure pain threshold value after repeated administration of reserpine; assay type: in vivo, rat; details: for time after reserpine final administration until which muscle pressure pain threshold value was statistically significantly low vs solvent group: reserpine 1 mg/kg s.c. once a day for 3 days
Method: Measurement of muscle pressure pain threshold value was carried out in accordance with the method of Schafers et al. (Schafers M. et al., Pain, 104, 579-588, 2003). A pressure stimulus of gradually increasing to 250 g at the maximum was added to the rat right hind leg gastrocnemius muscle. […] The measurement was carried out 3 times at each point of time of the measurement, and the average was used as the measurement value. Measurement of the skin pain sensation threshold value was carried out in accordance with the method of Chaplan et al. (Chaplan et al., J. Neurosci. Methods, 53, 55-63, 1994). This was measured using a series of von Frey filaments having different diameters which may add a constant pressure. […] The von Frey filament was applied using the up and down method. That is, by firstly applying a filament of middle diameter, a filament having one rank smaller diameter was applied when the withdrawal reaction was observed or a filament having one rank larger diameter was applied when the withdrawal reaction was not observed. The skin pain sensation threshold value at each point of time of the measurement was calculated as a hind paw withdrawal reaction threshold value (g) using the calculation formula reported by Chaplan et al. (Chaplan et al., described above). Influences of reserpine upon the muscle pressure pain threshold value and skin pain sensation threshold value were examined by the following protocol. A total of 24 animals for each of male and female rats were used. After measuring muscle pressure pain threshold value and skin pain sensation threshold value before the reserpine treatment (base line), they were divided based on the reserpine administration doses into a solvent (0.5% acetic acid aqueous solution) group, a reserpine 0.1 mg/kg group, a 0.3 mg/kg group and a 1 mg/kg group (the number of animals per one group was 6). The solvent or reserpine was subcutaneously administered on the back of the rats of each group once a day for 3 days. All of the administration volume of the solvent or reserpine was set to 1 ml per 1 kg body weight of each animal. After final administration of the solvent or reserpine, the muscle pressure pain threshold value and skin pain sensation threshold value of each rat were measured 1, 3, 5, 7, 10, 14 and 21 days thereafter.
All of the measured values were expressed as average value±standard error. Statistical significance test of the measured values between the reserpine administration groups and the solvent administration group at each point of time was carried out by a two-way analysis of variance and the Bonferroni method. Probability value (P) of less than 5% was judged as statistically significant (P<0.05 was expressed as * in the graphs).

Sprague-Dawley rats [2] = assay: Forced swimming test (immobility time) after repeated administration of reserpine; assay type: in vivo, rat; details: reserpine 1 mg/kg s.c. once a day for 3 days
Method: Male Sprague-Dawley rats (7 weeks old, Japan SLC, Hamamatsu, Japan) were used as the animal. The forced swimming test was carried out by modifying the method of Porsolt et al. (1977) in the following manner. A soft wire equipped with a magnet (1 mm in diameter, 3 mm in length) was attached to both forelimbs of each animal, and the animal was allowed to swim in a cylindrical plastic water bath (20 cm in diameter, 45 cm in height) filled with water (24±1° C.) to a depth of 30 cm. In this test, the immobility time of each animal was measured using a forced swimming automatic measuring device (MicroAct Scratching Test version 1.06; Neuroscience, Tokyo, Japan) which detects movement of the forelimbs equipped with the magnet, through a coil around the cylinder.
Influence of reserpine upon the immobility time in the forced swimming test was examined in accordance with the following protocol. […] All of the measured values were expressed as average value±standard error. Statistical difference of the measured values between the reserpine administration groups and the vehicle administration group in each test schedule was carried out by the Student's t-test. Probability value (P) of less than 5% was judged as statistically significant (P<0.05 was expressed as * in the graphs).

COC(=O)[C@H]1[C@H]2C[C@@H]3c4[nH]c5cc(OC)ccc5c4CCN3C[C@H]2C[C@@H](OC(=O)c2cc(OC)c(OC)c(OC)c2)[C@@H]1OC [reserpine]
time after reserpine final administration until which muscle pressure pain threshold value was statistically significantly low vs solvent group (Sprague-Dawley rats [1]; female rats): 7 days | muscle pressure pain threshold value (Sprague-Dawley rats [1]; male and female rats, reserpine 0.1, 0.3, 1 mg/kg s.c. once a day for 3 days, two-way analysis of variance vs solvent): significantly reduced | time after reserpine final administration until which muscle pressure pain threshold value was statistically significantly low vs solvent group (Sprague-Dawley rats [1]; male rats): 10 days | muscle pressure pain threshold value (Sprague-Dawley rats [1]; reserpine 1 mg/kg group, s.c. once a day for 3 days): markedly reduced | duration of chronic muscle pain and chronic tactile allodynia after administration (Sprague-Dawley rats [1]; reserpine administered to a mammal (summary statement)): ≥ 1 week | immobility time in forced swimming test vs vehicle administration group (Sprague-Dawley rats [2]; after 3, 5, 7 and 14 days of the final administration (P=0.0007, P=0.004, P<0.0001, P=0.0008)): significant increase | immobility time in forced swimming test vs vehicle administration group (Sprague-Dawley rats [2]; after 1 day of the final administration (P=0.625, Student's t-test)): Significant increase in the immobility time by the reserpine administration was not found

Reference: US8795632B2, “Disease animal model for chronic pain” (Astellas Pharma Inc., priority 2008, dated 2014)
